{"source": "patent US12036246B2", "about": "“Compositions and methods for enhancing cancer chemotherapy” (priority 2017, dated 2024)", "key": {"[1]": {"tested_on": "MDA-MB-231 breast cancer sphere cells", "experiment": "Proliferation of MDA-MB-231 sphere cells", "type": "cell-based", "conditions": "FIG. 45-46"}, "[2]": {"tested_on": "triple-negative breast cancer cell line (MDA-MB-231)", "experiment": "Proliferation of MDA-MB-231 breast cancer cells", "type": "cell-based", "conditions": "72 hours, FIG. 8-9"}, "[3]": {"tested_on": "Cytochrome C", "experiment": "Western blot of Cytochrome C in tumors", "type": "in vivo", "conditions": "FIG. 38", "excerpt": "Results of similar studies directed to Bc1-2, p-Bc1-2, and Caspase 3 are shown in FIG. 36; results for similar studies directed to Caspase 8 are shown in FIG. 37. […] These effects are enhanced, in several instances synergistically, when a nutritional supplement containing fish oil and selenium is used in combination with a chemotherapeutic drug."}, "[4]": {"tested_on": "proliferative index marker", "experiment": "Proliferative index marker in mammary gland tumors by immunocytochemistry", "type": "in vivo, murine", "conditions": "FIG. 11", "quoted_text": "The effects of a nutritional supplement that includes fish oil and selenium in combination with chemotherapeutic drugs were also identified in in vivo studies, where the Ki-61 proliferative index marker was identified in mammary gland tumors of murine models by immunocytochemistry."}, "[5]": {"tested_on": "breast cancer cells", "experiment": "Metastatic tumor load in mammary glands, animals implanted with breast cancer cells", "type": "in vivo", "conditions": "FIG. 65"}, "[6]": {"tested_on": "p-AXL", "experiment": "Western blot of p-AXL in tumors, animal models of triple negative human breast cancer", "type": "in vivo", "conditions": "FIG. 112"}, "[7]": {"tested_on": "A549 lung cancer cells", "experiment": "Cell cycle phase distribution of A549 tumor cells", "type": "cell-based", "conditions": "selenium 300 ng/mL, fish oil 75 μM (DHA content), Alimta 1 μM, Tarceva 5 μM"}, "[8]": {"tested_on": "A549 lung cancer sphere cells", "experiment": "Cell cycle phase distribution of A549 sphere cells", "type": "cell-based", "conditions": "Alimta 1 μM, Tarceva 5 μM, fish oil 75 μM, selenium 300 ng/mL"}, "[9]": {"tested_on": "UCP-1", "experiment": "UCP-1 expression in animal models of human cancer", "type": "in vivo", "conditions": "FIG. 89", "excerpt": "(§1) As shown in FIG. 89 (lower left panel), expression of UCP-1 and ATGL is increases in tumor tissue (T) relative to non-tumor tissue (NT)."}, "[10]": {"tested_on": "PTHrP", "experiment": "PTHrP expression in tumors", "type": "in vivo", "conditions": "FIG. 77, FIG. 89"}, "[11]": {"tested_on": "HSP90", "experiment": "Western blot of HSP90 in tumors, animal models of triple negative human breast cancer", "type": "in vivo", "conditions": "FIG. 111", "experimental": "Studies of the effect of a nutritional supplement containing fish oil and selenium, both alone and in combination with chemotherapeutic agents, were also studied using in vivo animal models of triple negative human breast cancer. Animals were treated with a nutritional supplement containing fish oil and selenium (for example, a formulation as described in Table 1), Taxol (“tax”), Adriamycin (“adyri”), Avastin, or a combination of the nutritional supplement and individual chemotherapeutic agents."}, "[12]": {"tested_on": "vascularization of tumors", "experiment": "Tumor-associated blood vessels in murine models of breast cancer", "type": "in vivo, mice", "conditions": "FIG. 24-31", "description": "In an exemplary study mice were treated as shown in the scheme depicted in FIG. 23."}, "[13]": {"tested_on": "ATGL", "experiment": "ATGL expression in animal models of human cancer", "type": "in vivo", "conditions": "FIG. 89", "excerpt": "as §1"}, "[14]": {"tested_on": "lung cancer cells", "experiment": "Metastasis from implantation site of lung cancer cells", "type": "in vivo, mice", "conditions": "FIG. 63"}, "[15]": {"experiment": "Loss of adipose tissue and muscle mass in tumor bearing mice", "type": "in vivo", "conditions": "FIG. 75", "excerpt": "Individuals with cancer frequently present with weight loss, due to loss of fatty tissue and muscle wasting (cachexis). This weight loss can result in serious health issues in addition to those resulting directly from tumor growth and progression. […] Mice having tumors, with or without treatment with chemotherapeutic agents also experience cachexis."}, "[16]": {"tested_on": "IL-6", "experiment": "IL-6 expression in tumors", "conditions": "FIG. 77"}, "[17]": {"tested_on": "implanted tumor", "conditions": "28 days after tumor implantation, FIG. 13", "quoted_text": "8A provides an example of a typical testing protocol for such a nutritional supplement (“Nutrawell”) and the chemotherapeutic drug Tarceva. As shown, 28 days after tumor implantation mice were sacrificed and the tumor characterized."}, "[18]": {"tested_on": "PD-1", "experiment": "PD-1 in T cells of animal models", "type": "in vivo", "conditions": "FIG. 70-72"}, "[19]": {"tested_on": "A549 sphere cells", "experiment": "Proliferation of A549 sphere cells", "type": "cell-based", "conditions": "FIG. 43-44"}, "[20]": {"tested_on": "MDA-MB-231 breast cancer sphere cells", "experiment": "Cell cycle phase distribution, Cisplatin / selenium / fish oil (Table 4)", "type": "cell-based", "conditions": "selenium 500 ng/mL, fish oil 75 μM (DHA content), Cisplatin 5 μg/mL"}, "[21]": {"tested_on": "drug resistant HCC827Gr lung cancer cells", "experiment": "Proliferation of drug resistant HCC827Gr cells", "type": "cell-based, human"}, "[22]": {"tested_on": "HCC827Gr cells", "experiment": "Viable resistant HCC827Gr cells in culture", "type": "cell-based, human", "conditions": "FIG. 54"}, "[23]": {"tested_on": "HCC827Gr cells", "experiment": "Colony formation by resistant HCC827Gr cells", "type": "cell-based, human", "conditions": "0.5 μM Iressa, FIG. 59-60"}, "[24]": {"tested_on": "AXL", "experiment": "Western blot of AXL in drug resistant HCC827GR cells", "type": "cell-based, human", "conditions": "Iressa 1 μM, FIG. 105, 108"}, "[25]": {"tested_on": "lung cancer cells", "experiment": "Tumor weight in mice implanted with lung cancer cells, Iressa", "type": "in vivo"}, "[26]": {"tested_on": "Iressa-resistant HCC827GR cells", "experiment": "Cell cycle phase distribution of Iressa-resistant cells, co-treatment", "type": "cell-based, human", "conditions": "Iressa 1 μM"}}, "data": [{"molecule": "CC(=O)O[C@@]12CO[C@@H]1C[C@H](O)[C@@]1(C)C(=O)[C@H](O)C3=C(C)[C@@H](OC(=O)[C@H](O)[C@@H](NC(=O)OC(C)(C)C)c4ccccc4)C[C@@](O)([C@@H](OC(=O)c4ccccc4)[C@H]21)C3(C)C", "note": "[Docetaxel]", "values": [{"measurement": "proliferation of MDA-MB-231 breast cancer sphere cells", "setting": "[1]", "result": "moderate sensitivity to Docetaxel"}, {"measurement": "MDA-MB-231 cell proliferation", "setting": "[2]", "result": "provided a reduction in proliferation"}]}, {"molecule": "COc1cccc2c1C(=O)c1c(O)c3c(c(O)c1C2=O)C[C@@](O)(C(=O)CO)C[C@@H]3O[C@H]1C[C@H](N)[C@H](O)[C@H](C)O1", "note": "[Adriamycin, doxorubicin]", "values": [{"measurement": "Cytochrome C", "setting": "[3]", "result": "little to no increase"}, {"measurement": "number of Ki-61 positive cells (proliferative index)", "setting": "[4]", "result": "reduces the number of positive cells"}, {"measurement": "metastatic tumor load in the mammary glands", "setting": "[5]", "result": "more effective than Taxol in reducing metastatic tumor load"}, {"measurement": "p-AXL content of the tumor", "setting": "[6]", "result": "little to no apparent reduction in p-AXL expression"}]}, {"molecule": "Nc1nc2[nH]cc(CCc3ccc(C(=O)N[C@@H](CCC(=O)O)C(=O)O)cc3)c2c(=O)[nH]1", "note": "[Alimta]", "values": [{"measurement": "G0/G1 (cell cycle phase distribution)", "setting": "[7]", "result": 58.4, "unit": "%"}, {"measurement": "G2/M (cell cycle phase distribution)", "setting": "[7]", "result": 5.3, "unit": "%"}, {"measurement": "S (cell cycle phase distribution)", "setting": "[7]", "result": 36.3, "unit": "%"}, {"measurement": "SubG1 (cell cycle phase distribution)", "setting": "[7]", "result": 45, "unit": "%"}, {"measurement": "G0/G1 (cell cycle phase distribution)", "setting": "[8]", "result": 62.4, "unit": "%"}, {"measurement": "G2/M (cell cycle phase distribution)", "setting": "[8]", "result": 7.2, "unit": "%"}, {"measurement": "S (cell cycle phase distribution)", "setting": "[8]", "result": 30.4, "unit": "%"}, {"measurement": "SubG1 (cell cycle phase distribution)", "setting": "[8]", "result": 20.9, "unit": "%"}]}, {"molecule": "CC(=O)O[C@H]1C(=O)[C@@]2(C)[C@H]([C@H](OC(=O)c3ccccc3)[C@]3(O)C[C@H](OC(=O)[C@H](O)[C@@H](NC(=O)c4ccccc4)c4ccccc4)C(C)=C1C3(C)C)[C@]1(OC(C)=O)CO[C@@H]1C[C@@H]2O", "note": "[Taxol, paclitaxel]", "values": [{"measurement": "Cytochrome C", "setting": "[3]", "result": "little to no increase"}, {"measurement": "number of Ki-61 positive cells (proliferative index)", "setting": "[4]", "result": "reduces the number of positive cells"}, {"measurement": "expression of UCP-1", "setting": "[9]", "result": "decreased somewhat"}, {"measurement": "metastatic tumor load in the mammary glands", "setting": "[5]", "result": "modest reduction in tumor loading of mammary glands"}, {"measurement": "PTHrP expression", "setting": "[10]", "result": "actually increased expression when used alone"}, {"measurement": "p-AXL content of the tumor", "setting": "[6]", "result": "reduces p-AXL expression"}, {"measurement": "HSP90 expression in tumor samples", "setting": "[11]", "result": "minimal impact on HSP90 expression"}, {"measurement": "blood vessels associated with the tumors", "setting": "[12]", "result": "reduce the number of blood vessels associated with the tumor and also reduce their diameter"}, {"measurement": "expression of ATGL", "setting": "[13]", "result": "decreased somewhat"}]}, {"molecule": "C#Cc1cccc(Nc2ncnc3cc(OCCOC)c(OCCOC)cc23)c1", "note": "[Tarceva]", "values": [{"measurement": "metastasis of tumor cells from the implantation site", "setting": "[14]", "result": "reduced to some extent"}, {"measurement": "loss of white adipose tissue (WAT), brown adipose tissue (BAT), and muscle mass (gastroc)", "setting": "[15]", "result": "only slightly relieved"}, {"measurement": "IL-6 expression in tumors", "setting": "[16]", "result": "can actually increase expression of such gene products"}, {"measurement": "G0/G1 (cell cycle phase distribution)", "setting": "[7]", "result": 70.9, "unit": "%"}, {"measurement": "G2/M (cell cycle phase distribution)", "setting": "[7]", "result": 14.8, "unit": "%"}, {"measurement": "S (cell cycle phase distribution)", "setting": "[7]", "result": 14.2, "unit": "%"}, {"measurement": "SubG1 (cell cycle phase distribution)", "setting": "[7]", "result": 5.9, "unit": "%"}, {"measurement": "tumor weight distribution, large (>5 g) tumors", "setting": "[17]", "result": "still showed a significant number of such large tumors"}, {"measurement": "G0/G1 (cell cycle phase distribution)", "setting": "[8]", "result": 58.3, "unit": "%"}, {"measurement": "G2/M (cell cycle phase distribution)", "setting": "[8]", "result": 8.9, "unit": "%"}, {"measurement": "S (cell cycle phase distribution)", "setting": "[8]", "result": 32.7, "unit": "%"}, {"measurement": "SubG1 (cell cycle phase distribution)", "setting": "[8]", "result": 42.8, "unit": "%"}, {"measurement": "PTHrP expression", "setting": "[10]", "result": "can actually increase expression of such gene products"}, {"measurement": "PD-1 expression in T cells", "setting": "[18]", "result": "marginally reduced"}, {"measurement": "proliferation of A549 sphere cells", "setting": "[19]", "result": "similarly resistant to Tarceva"}]}, {"molecule": "N.N.[Cl][Pt][Cl]", "note": "[Cisplatin]", "values": [{"measurement": "proliferation of MDA-MB-231 breast cancer sphere cells", "setting": "[1]", "result": "relatively resistant"}, {"measurement": "G0/G1 (cell cycle phase distribution)", "setting": "[20]", "result": 48.5, "unit": "%"}, {"measurement": "G2/M (cell cycle phase distribution)", "setting": "[20]", "result": 6.1, "unit": "%"}, {"measurement": "S (cell cycle phase distribution)", "setting": "[20]", "result": 45.4, "unit": "%"}, {"measurement": "SubG1 (cell cycle phase distribution)", "setting": "[20]", "result": 11.7, "unit": "%"}]}, {"molecule": "COc1cc2ncnc(Nc3ccc(F)c(Cl)c3)c2cc1OCCCN1CCOCC1", "note": "[Iressa]", "values": [{"measurement": "reduction in cell proliferation", "setting": "[21]; HCC827Gr cells, FIG. 57-58", "result": "≤ 20", "unit": "%"}, {"measurement": "activity at 1 µM", "setting": "[21]; Homo sapiens, read-out: proliferation, % of control values", "result": "~80", "unit": "%"}, {"measurement": "number of viable resistant HCC827Gr cells", "setting": "[22]", "result": "does not significantly decrease the number of viable resistant HCC827Gr cells"}, {"measurement": "colony formation by HCC827Gr cells", "setting": "[23]", "result": "Significant colony formation"}, {"measurement": "AXL expression", "setting": "[24]", "result": "had no effect"}, {"measurement": "tumor weight", "setting": "[25]; FIG. 16", "result": "only a marginal reduction in tumor weight"}, {"measurement": "tumor weight distribution", "setting": "[25]; FIG. 16 top right panel", "result": "most of the mice having >6 gram tumors"}, {"measurement": "PD-1 expression in T cells", "setting": "[18]", "result": "marginally reduced"}, {"measurement": "G0/G1 (cell cycle phase distribution)", "setting": "[26]", "result": 76.1, "unit": "%"}, {"measurement": "G2/M (cell cycle phase distribution)", "setting": "[26]", "result": 18.9, "unit": "%"}, {"measurement": "S (cell cycle phase distribution)", "setting": "[26]", "result": 4.9, "unit": "%"}, {"measurement": "SubG1 (cell cycle phase distribution)", "setting": "[26]", "result": 1.51, "unit": "%"}, {"measurement": "proliferation of A549 sphere cells", "setting": "[19]", "result": "relatively resistant to treatment with Iressa"}]}, {"molecule": "Avastin: chemotherapeutic drug commonly used to treat breast cancer", "values": [{"measurement": "p-AXL content of the tumor", "setting": "[6]", "result": "little to no apparent reduction in p-AXL expression"}, {"measurement": "HSP90 expression in tumor samples", "setting": "[11]", "result": "reduced to some extent"}]}]}
